Assays:
[1] = tested on: SCID/beige mice with acute myocardial infarction; experiment: Mouse acute MI model (echocardiography, Masson's trichrome histology, mortality); type: in vivo; settings: for myocardial function in mice with MI, drugs given independent of CDCs: relative to controls
Method: Acute myocardial infarction was induced in three-month-old male severe combined immunodeficient (SCID)/beige mice (n=5-7 animals per group). Within 10 min of coronary ligation, 1×10^5 cells, EVs, drugs (or vehicle) were injected intramyocardially.
Echocardiography. Echocardiography study was performed in the SCID/beige at 24 hr (baseline) and three weeks after surgery using Vevo 3100 or 770 Imaging System (Visual Sonics) as described. The average of the left ventricular ejection fraction was analyzed from multiple left ventricular end-diastolic and left ventricular end-systolic measurements.
Animals were sacrificed 3 weeks after MI induction. Hearts were harvested and a transverse cut was made slightly above the MI suture. The apical portion was then embedded in optimum cutting temperature solution in a base mold/embedding ring block (Tissue Tek). Blocks were immediately frozen by submersion in cold 2-methylbutane. Hearts were sectioned at a thickness of 5 μm.
Two slides containing a total of four sections per heart were stained using Masson's trichrome stain. In brief, sections were treated overnight in Bouin's solution. Slides were then rinsed for 10 min under running water and stained with Weigert's hematoxylin for 5 min. Slides were then rinsed and stained with scarlet-acid fuchsin for 5 min and rinsed again. Slides were then stained with phosphotungstic/phosphomolybdic, aniline blue, and 2% acetic acid for 5 min each. Slides were then rinsed, dried, and mounted using DPX mounting media.

β-catenin = experiment: Total β-catenin ELISA of cells; type: cell-based, Human; settings: for duration / decay of effect on β-catenin after GSK3β inhibition: CDCs, BIO (reversible) vs tideglusib (irreversible)
Method: (§1) Cell lysates were collected for ELISA and western blot. For ELISA, 4×10^5 cells were collected and pelleted at 1,000 rpm for 5 min at 4° C. Cell pellets were lysed in 1× lysis buffer (Affymetrix eBioscience InstantOne ELISA kit) and incubated for 10 min at room temperature with regular agitation. For western blot, cells were pelleted and resuspended in 1× RIPA buffer (Alfa Aesar) with protease inhibitor on ice for 30 min. Protein lysates were isolated by centrifugation at 14,000 rpm for 15 min at 4° C. Protein concentration was measured using a DC™ Protein Assay kit (Bio-Rad).
(§2) Cells were exposed to 5 μM of 6-bromoindirubin-3′-oxime (BIO, Sigma-Aldrich) or 4-Benzyl-2-(naphthalene-1-yl)-[1,2,4]thiadiazolidine-3,5-dione (Tideglusib, Sigma-Aldrich) for 48 or 72 hours in complete media.
Total β-catenin ELISA was performed according the protocol described with a final sample concentration of 0.01 mg/ml and positive control of 0.1 mg/ml (Affymetrix eBioscience InstantOne™ ELISA).

CDCs [2] = experiment: Flow cytometry of CD90, CD105, DDR2 and LRP5/6; type: cell-based, Human
Method: as §2
Cells were harvested and counted (2×10^5 cells per condition). Cells were washed with 1% bovine serum albumin (BSA) in 1× phosphate-buffered saline (PBS) and stained with the appropriate antibody (BD Pharmingen) for 1 hr at 4° C. Cells were then washed again and resuspended in 1% BSA in 1×PBS. BD Cytofix/Cytoperm™ kit was used for cell permeabilization before staining. Flow analysis was done using a BD FACS Canto™ II instrument.

CDCs [3] = experiment: RNA sequencing and qPCR of BIO-exposed versus vehicle-exposed CDCs (LP, LPL, imCDC); type: cell-based, Human
Method: (§3) Cell RNA was isolated using a miRNeasy Mini Kit (Qiagen). Exosome RNA was isolated using the Urine Exosome RNA Isolation Kit (Norgen Biotek Corp.). Reverse transcription was performed using High Capacity RNA to cDNA (Thermo Fisher Scientific) or TaqMan® microRNA Reverse Transcription Kit (Applied Biosystems) for RNA and micro RNA, respectively. Real-time PCR was performed using TaqMan Fast Advanced Master Mix and the appropriate TaqMan® Gene Expression Assay (Thermo Fisher Scientific). Samples were processed and analyzed using a QuantStudio™ 12K Flex Real-Time PCR system and each reaction was performed in triplicate samples (with housekeeping genes hprt1 for mRNA and miR23a for microRNA). The gene expression assays/microRNAs used in this study were as follows (Thermo Fisher Scientific):
Cell and exosome RNA samples were sequenced at the Cedars Sinai Genomics Core. Total RNA and Small RNA were analyzed using an Illumina NextSeq 500 platform for cell and exosome samples respectively.
as §2
To understand how β-catenin drives potency, the transcriptomes of LP CDCs to those of the same cell batches after exposure to BIO were compared. As stated above, three scenarios associated with low potency were identified: donor-related, in which all lots from a given donor lack potency; lot-dependent, in which some lots are potent and others are not; and immortalized CDCs (imCDCs). Using RNA sequencing, LP cells from each scenario were compared after exposure to BIO versus vehicle alone. […] Differential expression of microRNAs (miRs) between the two groups further identified a cognate miR coregulated with mest (miR-335; FIG. 3C, FIGS. 9D and 9E). […] Mest modulates Wnt/β-catenin signaling indirectly through glucosyltransferases that prevent LRP5/6 receptor maturation. […]

EXTL1 = experiment: Western blot of EXTL1 protein; type: cell-based, Human; settings: CDC (LP) exposure to BIO
Method: as §1

immortalized CDCs = type: cell-based, Human
Method: as §2

CDC EVs = experiment: qPCR of miRs in EVs from BIO-exposed versus vehicle-exposed CDCs; type: cell-based, Human; settings: EVs of LP, LPL, imCDC exposed to BIO vs vehicle
Method: Extracellular Vesicles were harvested from primary CDCs at passage 5 or older passages from transduced cells using a hypoxic cycling method used previously. Briefly, cells were grown to confluence at 20% O2/5% CO2 at 37° C., and then cells were serum-free at 2% O2/5% CO2 at 37° C. overnight after one wash. Conditioned media was collected and filtered through 0.45 μm filter to remove apoptotic bodies and cellular debris and frozen for later use at −80° C. EVs were purified using centrifugal ultrafiltration with a 1000 KDa molecular weight cutoff filter (Sartorius). EV preparations were analyzed through Malvern Nanosight NS300 Instrument (Malvern Instruments) with the following acquisition parameters: camera levels of 15, detection level less than or equal to 5, number of videos taken 4, and video length of 30 s.
as §3, with “Real-time PCR was performed using TaqMan Fast Advanced Master Mix and the appropriate TaqMan® Gene Expression Assay (Thermo Fisher Scientific).” left out, “The gene expression assays/microRNAs used in this study were as follows (Thermo Fisher Scientific):” left out

Row | SMILES | myocardial function in mice with MI, drugs given independent of CDCs [1] | duration / decay of effect on β-catenin after GSK3β inhibition (β-catenin) | concentration at which BIO is maximally effective in CDCs (β-catenin ELISA) (β-catenin; CDCs exposed to increasing concentrations of BIO) [µM] | β-catenin levels (β-catenin; LP CDC line exposed to 5 μM BIO vs vehicle) | expression of CD90 (CDCs [2]; BIO-exposed LP cells) | expression of CD105 (CDCs [2]; BIO-exposed LP cells) | expression of DDR2 (CDCs [2]; BIO-exposed LP cells) | LRP5/6 level (flow cytometry) (CDCs [2]; LP CDCs exposed to BIO) | miR-335 expression in cells (CDCs [3]; BIO vs vehicle, LP, LPL and imCDC) | downregulation of mest (CDCs [3]; BIO vs vehicle, fold changes pooled over LP, LPL and imCDC) [fold] | LRP5/6 transcripts (CDCs [3]; BIO-exposed LP, LPL and imCDCs, qPCR) | EXTL1 protein levels (EXTL1) | potency of immortalized CDCs after exposure to BIO ([1]; imCDC pre-exposed to BIO, then injected) | cell growth and viability (immortalized CDCs) | EV levels of miR-335 (CDC EVs)
1 | O=C1Nc2ccccc2C12OCC1(CO2)COC2(OC1)C(=O)Nc1ccccc12 (centres unmarked) [JW67] | Neither BIO nor the canonical Wnt inhibitor JW67 significantly altered myocardial function | – | – | – | – | – | – | – | – | – | – | – | – | – | –
2 | O=c1sn(-c2cccc3ccccc23)c(=O)n1Cc1ccccc1 [Tideglusib, 4-Benzyl-2-(naphthalene-1-yl)-[1,2,4]thiadiazolidine-3,5-dione] | – | directionally similar but longer-lasting effects | – | – | – | – | – | – | – | – | – | – | – | – | –
3 | O=C1Nc2cc(Br)ccc2/C1=C1/Nc2ccccc2/C1=N\O [BIO, 6-bromoindirubin-3′-oxime] | Neither BIO nor the canonical Wnt inhibitor JW67 significantly altered myocardial function | more rapid decay of effect | 5 | increase β-catenin levels | decreased the expression of CD90 | without affecting | without affecting | upregulated its glycosylation target LRP5/6 (although that difference was not statistically significant | downregulated | ~30 | unchanged | decreased EXTL1 protein levels | restored potency | cell growth and viability were undermined | decreased significantly

From patent publication US20220218757A1, “THERAPEUTICALLY ACTIVE CELLS AND EXOSOMES” (Cedars-Sinai Medical Center, priority 2019, published 2022)
